ChEMBL document CHEMBL1201862, “PubChem BioAssay data set” (2004)
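Grown in 96-well plates, cells were treated for 48 hours with each compound at five concentrations. Insufficient inhibition: endpoint recorded as highest concentration tested. At the GI50, growth is halved.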 The source made the active and inactive calls. Cut-off read from the data, not from the text of the source: active = GI50 up to about 1.1 µM and inactive = higher.

Experiments:
Test in all cases: NCI-60 cell line screen, 48 h
[1] = test system: 786-0
[2] = test system: A498
[3] = test system: A549
[4] = test system: ACHN
[5] = test system: CAKI-1
[6] = test system: CCRF-CEM
[7] = test system: COLO 205
[8] = test system: DLD-1
[9] = test system: DMS-114
[10] = test system: EKVX
[11] = test system: HCC 2998
[12] = test system: HCT-116
[13] = test system: HCT-15
[14] = test system: HL-60
[15] = test system: HOP-18
[16] = test system: HOP-62
[17] = test system: HOP-92
[18] = test system: HT-29
[19] = test system: IGROV-1
[20] = test system: K562
[21] = test system: KM-20L2
[22] = test system: KM12
[23] = test system: LOX IMVI
[24] = test system: LXFL 529
[25] = test system: M14
[26] = test system: M19-MEL
[27] = test system: MOLT-4
[28] = test system: Malme-3M
[29] = test system: NCI-H226
[30] = test system: NCI-H23
[31] = test system: NCI-H460
[32] = test system: OVCAR-3
[33] = test system: OVCAR-4
[34] = test system: OVCAR-5
[35] = test system: OVCAR-8
[36] = test system: RPMI-8226
[37] = test system: RXF 393
[38] = test system: SF-295
[39] = test system: SF-539
[40] = test system: SK-MEL-2
[41] = test system: SK-MEL-5
[42] = test system: SK-OV-3
[43] = test system: SN12C
[44] = test system: SNB-19
[45] = test system: SNB-75
[46] = test system: SNB-78
[47] = test system: SW-620
[48] = test system: TK-10
[49] = test system: U-251
[50] = test system: UACC-257
[51] = test system: UACC-62
[52] = test system: UO-31
[53] = test system: XF498
[54] = test system: DMS-273
[55] = test system: SF-268
[56] = test system: SK-MEL-28
[57] = test system: MCF7
[58] = test system: NCI-H522
[59] = test system: NCI/ADR-RES

Measured: GI50

CSc1nc(NC2OC(COC(C)=O)C(OC(C)=O)C(OC(C)=O)C2OC(C)=O)c2c(OC(C)=O)c(C)c(=O)oc2n1 (stereo unspecified)
> 100 µM: [13]
inactive: [1] > 100 µM | [2] > 100 µM | [3] > 100 µM | [4] > 100 µM | [5] > 100 µM | [6] > 100 µM | [7] > 100 µM | [8] > 100 µM | [9] > 100 µM | [10] > 100 µM | [11] > 100 µM | [12] > 100 µM | [14] > 100 µM | [15] > 100 µM | [16] > 100 µM | [17] > 100 µM | [18] > 100 µM | [19] > 100 µM | [20] > 100 µM | [21] > 100 µM | [22] > 100 µM | [23] > 100 µM | [24] > 100 µM | [25] > 100 µM | [26] > 100 µM | [27] > 100 µM | [28] > 100 µM | [29] > 100 µM | [30] > 100 µM | [31] > 100 µM | [32] > 100 µM | [33] > 100 µM | [34] > 100 µM | [35] > 100 µM | [36] > 100 µM | [37] > 100 µM | [38] > 100 µM | [39] > 100 µM | [40] > 100 µM | [41] > 100 µM | [42] > 100 µM | [43] > 100 µM | [44] > 100 µM | [45] > 100 µM | [46] > 100 µM | [47] > 100 µM | [48] > 100 µM | [49] > 100 µM | [50] > 100 µM | [51] > 100 µM | [52] > 100 µM | [53] > 100 µM

Nc1nc2c(-c3ccc([N+](=O)[O-])cc3)nnn2c2ccccc12
> 100 µM: [13]
inactive: [1] 84.5 µM | [2] > 100 µM | [3] > 100 µM | [4] > 100 µM | [5] > 100 µM | [6] > 10 µM | [7] > 100 µM | [8] > 100 µM | [54] > 100 µM | [10] > 100 µM | [11] > 100 µM | [14] > 100 µM | [15] > 100 µM | [16] 56.5 µM | [17] > 100 µM | [18] > 100 µM | [19] > 100 µM | [20] > 100 µM | [22] > 100 µM | [23] > 100 µM | [24] > 100 µM | [25] > 100 µM | [26] > 100 µM | [27] > 100 µM | [28] > 100 µM | [29] > 100 µM | [30] 37.2 µM | [31] > 100 µM | [32] 29.6 µM | [33] > 100 µM | [34] > 100 µM | [35] 75.9 µM | [36] > 100 µM | [55] > 100 µM | [38] 62.1 µM | [39] > 100 µM | [56] > 100 µM | [40] > 100 µM | [42] 51.4 µM | [43] > 100 µM | [44] 17.5 µM | [45] > 10 µM | [46] 81.1 µM | [47] > 100 µM | [48] 21 µM | [49] 17.9 µM | [51] > 100 µM | [52] > 100 µM | [53] 78.5 µM

COC1C(O)C(n2ncc3c(SC)nc(SC)nc32)OC1C(O)CO (stereo unspecified)
> 100 µM: [13]
inactive: [2] > 100 µM | [3] > 100 µM | [6] > 100 µM | [7] > 100 µM | [8] > 100 µM | [9] > 100 µM | [54] > 100 µM | [10] > 100 µM | [11] > 100 µM | [12] > 100 µM | [14] > 100 µM | [15] > 100 µM | [16] > 100 µM | [17] > 100 µM | [18] > 100 µM | [19] > 100 µM | [20] > 100 µM | [21] > 100 µM | [22] > 100 µM | [23] > 100 µM | [26] > 100 µM | [57] > 100 µM | [27] > 100 µM | [28] > 100 µM | [29] > 100 µM | [30] > 100 µM | [31] > 100 µM | [58] > 100 µM | [59] > 100 µM | [32] > 100 µM | [33] > 100 µM | [34] > 100 µM | [35] > 100 µM | [36] > 100 µM | [37] > 100 µM | [55] > 100 µM | [38] > 100 µM | [39] > 100 µM | [56] > 100 µM | [40] > 100 µM | [41] > 100 µM | [42] > 100 µM | [43] > 100 µM | [44] > 100 µM | [45] > 100 µM | [46] > 100 µM | [47] > 100 µM | [49] > 100 µM | [50] > 37.6 µM | [51] > 100 µM | [52] > 100 µM | [53] > 100 µM

N/C=N/S(=O)(=O)c1ccc(NC(=O)COC(=O)c2cccc3c(=O)c4ccccc4[nH]c23)cc1
> 100 µM: [13]
inactive: [1] > 100 µM | [3] > 100 µM | [4] > 100 µM | [6] > 100 µM | [7] > 100 µM | [8] > 100 µM | [9] > 100 µM | [54] > 100 µM | [10] > 100 µM | [12] > 100 µM | [14] > 100 µM | [15] > 100 µM | [16] > 100 µM | [18] > 100 µM | [19] > 100 µM | [20] > 100 µM | [22] > 100 µM | [23] > 100 µM | [25] 67.8 µM | [26] > 100 µM | [27] > 100 µM | [28] > 100 µM | [29] > 100 µM | [30] > 100 µM | [31] > 100 µM | [58] > 100 µM | [32] > 100 µM | [35] > 100 µM | [36] > 100 µM | [37] > 100 µM | [38] > 100 µM | [39] > 100 µM | [56] > 100 µM | [41] > 100 µM | [42] > 100 µM | [43] > 100 µM | [44] > 100 µM | [45] > 100 µM | [47] > 100 µM | [48] > 100 µM | [49] > 100 µM | [50] > 100 µM | [51] > 100 µM | [52] > 100 µM | [53] > 100 µM

COc1cc2c(oc(=O)c3cc(C)cc(OC)c32)c2c(C3OC(C)C(O)C(C)(O)C3O)ccc(O)c12 (stereo unspecified)
0.662 µM: [13]
active: [2] 0.465 µM | [3] 0.439 µM | [5] 0.432 µM | [6] 0.0955 µM | [7] 0.551 µM | [8] 0.845 µM | [9] 0.315 µM | [54] 0.336 µM | [10] 0.776 µM | [11] 0.665 µM | [12] 0.216 µM | [14] 0.045 µM | [16] 0.284 µM | [17] 0.745 µM | [18] 0.463 µM | [19] 0.815 µM | [20] 0.277 µM | [21] 0.664 µM | [22] 0.771 µM | [23] 0.32 µM | [26] 0.706 µM | [57] 0.237 µM | [27] 0.075 µM | [28] 0.673 µM | [29] 0.376 µM | [30] 0.223 µM | [31] 0.142 µM | [58] 0.389 µM | [59] 0.622 µM | [32] 0.785 µM | [33] 0.467 µM | [34] 0.681 µM | [35] 0.256 µM | [36] 0.454 µM | [37] 0.38 µM | [55] 0.349 µM | [38] 0.358 µM | [39] 0.466 µM | [56] 0.861 µM | [40] 0.794 µM | [41] 0.581 µM | [43] 0.402 µM | [44] 0.562 µM | [45] 0.571 µM | [46] 0.755 µM | [47] 0.312 µM | [49] 0.335 µM | [50] 0.731 µM | [51] 0.414 µM | [52] 1.04 µM | [53] 0.37 µM
inactive: [15] 1.41 µM | [42] 1.18 µM
